We go through 13 molecules from US9440957B2, “Compounds and compositions for modulating EGFR Activity” (Novartis AG, priority 2012, dated 2016).

One assay addresses T1, EGFR(L858R/T790M) (Homo sapiens, UniProt P00533, L858R/T790M).
T1 construct: purchased from Carna (GST-a.a. 669-1210)
Put plainly: EGFR biochemical assay (HTRF), IC50 determinations. On the procedure:
All EGFR biochemical assays were carried out by HTRF method. […] The substrate peptide Biotin-TK-peptide was purchased from Cis-Bio. […] All reactions were carried out at room temperature in white ProxiPlate™ 384-well Plus plates (PerkinElmer) and were quenched with 5 μL of 0.2 M EDTA at 60 min. Five L of the detection reagents (2.5 ng PT66K and 0.05 μg SAXL per well) were added, the plates were incubated at room temperature for 1 h and then read in EnVision reader. […] For no-preincubation condition, the compounds were added to the assay solution containing ATP and peptide, and the reaction was initiated by addition of enzyme. For pre-incubation conditions, the compounds were added to the assay solution containing enzyme and peptide, and pre-incubated at room temperature for desired period of time, then the reaction was initiated by addition of ATP.
On the technique in general: Time-resolved FRET reads energy transfer from a long-lived donor to a nearby acceptor.

In assay [1] the target is human EGFR L858R (NIH/3T3 cells) (Homo sapiens, UniProt P00533, L858R). Put plainly: EGFR target modulation in engineered NIH/3T3 cell lines (phospho-EGFR Y1068 AlphaLISA), EGFR L858R. Format: cell-based. The note with it: engineered NIH/3T3 cells, read-out: NIH3T3 IC50 (μM) EGFR (L858R). On the procedure: (§1) EGFR Target Modulation in Engineered NIH/3T3 Cell Lines Tissue Culture.
Sequence of human EGFR L858R (NIH/3T3 cells) (P00533 25-1210 L858R): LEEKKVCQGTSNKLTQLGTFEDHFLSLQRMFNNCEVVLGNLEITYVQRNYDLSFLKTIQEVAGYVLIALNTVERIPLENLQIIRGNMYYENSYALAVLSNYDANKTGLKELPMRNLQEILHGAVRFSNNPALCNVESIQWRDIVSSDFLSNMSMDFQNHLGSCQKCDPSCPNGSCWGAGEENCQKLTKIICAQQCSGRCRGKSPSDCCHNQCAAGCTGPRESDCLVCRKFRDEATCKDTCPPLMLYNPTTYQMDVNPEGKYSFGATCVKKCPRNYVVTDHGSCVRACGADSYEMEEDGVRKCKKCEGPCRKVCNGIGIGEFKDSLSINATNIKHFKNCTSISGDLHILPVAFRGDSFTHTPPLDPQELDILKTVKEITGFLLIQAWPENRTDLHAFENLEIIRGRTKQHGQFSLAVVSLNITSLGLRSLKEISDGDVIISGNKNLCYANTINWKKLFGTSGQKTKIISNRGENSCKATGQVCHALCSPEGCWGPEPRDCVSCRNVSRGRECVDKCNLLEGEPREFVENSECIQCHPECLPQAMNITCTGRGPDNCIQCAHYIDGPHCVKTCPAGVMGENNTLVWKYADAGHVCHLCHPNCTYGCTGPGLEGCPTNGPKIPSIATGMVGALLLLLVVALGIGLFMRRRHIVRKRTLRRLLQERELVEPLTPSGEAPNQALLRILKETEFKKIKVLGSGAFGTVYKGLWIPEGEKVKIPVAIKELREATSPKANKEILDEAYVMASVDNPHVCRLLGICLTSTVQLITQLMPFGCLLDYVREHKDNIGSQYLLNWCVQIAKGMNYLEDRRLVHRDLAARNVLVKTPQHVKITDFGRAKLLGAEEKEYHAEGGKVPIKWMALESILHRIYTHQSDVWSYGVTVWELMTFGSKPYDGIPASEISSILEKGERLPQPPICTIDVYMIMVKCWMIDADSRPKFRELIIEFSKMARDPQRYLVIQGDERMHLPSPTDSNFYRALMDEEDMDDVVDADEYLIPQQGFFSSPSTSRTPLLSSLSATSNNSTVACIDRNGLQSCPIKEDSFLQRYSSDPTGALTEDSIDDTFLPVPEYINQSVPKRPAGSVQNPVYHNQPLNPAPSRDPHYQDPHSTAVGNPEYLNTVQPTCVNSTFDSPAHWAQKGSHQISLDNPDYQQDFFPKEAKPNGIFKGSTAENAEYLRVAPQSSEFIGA
(§2) The cells were harvested with 0.05% Trypsin/EDTA (Hyclone #SH30236.01), re-suspended in 5% FBS/DMEM Pen/Strep without Puromycin and plated at 9,000 cells per well in 50 μl of media in a 384-well black plate with clear bottoms (Greiner #789068G). The cells were allowed to incubate overnight in a 37° C., 5% CO2 humidified tissue culture incubator. A 12-point test compound curve was prepared by serial diluting a 10 μM stock 1:3 in DMSO in a 384-well compound plate (Greiner #789201L). The serial diluted compounds were transferred to the plate containing cells by using a 50 nl Pin Head device (Perkin Elmer) and the cells were placed back in the incubator for 3 hours. Only the EGFR WT-expressing cells were induced with 50 ng/ml EGF (Preprotech #AF-100-15) for 5 minutes before lysis. […] The plates were shaken at 4° C. for 5 minutes with foil top at maximum speed. […] The plates were sealed with a foil top and frozen at −80° C. and thawed when needed.
(§3) The frozen aliquots were thawed and briefly centrifuged. All antibodies and beads were diluted in 1× AlphaLISA HiBlock Buffer (PE #AL004C). […] Goat anti-total EGFR (R&D Systems #AF231) was added and allowed to equilibrate for 1 hour at room temperature at 1 nM final concentration.
(§4) With these parameters, the IC50's for each compound in each cell line was calculated using non-linear curve fitting analysis.
Background: Alpha assays give light when donor and acceptor beads are brought close together.

In assay [2] the target is human EGFR WT (NIH/3T3 cells, EGF-induced) (Homo sapiens, UniProt P00533). Description: EGFR target modulation in engineered NIH/3T3 cell lines (phospho-EGFR Y1068 AlphaLISA), EGFR WT. Format: cell-based. The following applies: engineered NIH/3T3 cells, read-out: NIH3T3 IC50 (μM) EGFR (WT). On the procedure: as §1, §2, §3, §4
Sequence of human EGFR WT (NIH/3T3 cells, EGF-induced) (P00533 25-1210): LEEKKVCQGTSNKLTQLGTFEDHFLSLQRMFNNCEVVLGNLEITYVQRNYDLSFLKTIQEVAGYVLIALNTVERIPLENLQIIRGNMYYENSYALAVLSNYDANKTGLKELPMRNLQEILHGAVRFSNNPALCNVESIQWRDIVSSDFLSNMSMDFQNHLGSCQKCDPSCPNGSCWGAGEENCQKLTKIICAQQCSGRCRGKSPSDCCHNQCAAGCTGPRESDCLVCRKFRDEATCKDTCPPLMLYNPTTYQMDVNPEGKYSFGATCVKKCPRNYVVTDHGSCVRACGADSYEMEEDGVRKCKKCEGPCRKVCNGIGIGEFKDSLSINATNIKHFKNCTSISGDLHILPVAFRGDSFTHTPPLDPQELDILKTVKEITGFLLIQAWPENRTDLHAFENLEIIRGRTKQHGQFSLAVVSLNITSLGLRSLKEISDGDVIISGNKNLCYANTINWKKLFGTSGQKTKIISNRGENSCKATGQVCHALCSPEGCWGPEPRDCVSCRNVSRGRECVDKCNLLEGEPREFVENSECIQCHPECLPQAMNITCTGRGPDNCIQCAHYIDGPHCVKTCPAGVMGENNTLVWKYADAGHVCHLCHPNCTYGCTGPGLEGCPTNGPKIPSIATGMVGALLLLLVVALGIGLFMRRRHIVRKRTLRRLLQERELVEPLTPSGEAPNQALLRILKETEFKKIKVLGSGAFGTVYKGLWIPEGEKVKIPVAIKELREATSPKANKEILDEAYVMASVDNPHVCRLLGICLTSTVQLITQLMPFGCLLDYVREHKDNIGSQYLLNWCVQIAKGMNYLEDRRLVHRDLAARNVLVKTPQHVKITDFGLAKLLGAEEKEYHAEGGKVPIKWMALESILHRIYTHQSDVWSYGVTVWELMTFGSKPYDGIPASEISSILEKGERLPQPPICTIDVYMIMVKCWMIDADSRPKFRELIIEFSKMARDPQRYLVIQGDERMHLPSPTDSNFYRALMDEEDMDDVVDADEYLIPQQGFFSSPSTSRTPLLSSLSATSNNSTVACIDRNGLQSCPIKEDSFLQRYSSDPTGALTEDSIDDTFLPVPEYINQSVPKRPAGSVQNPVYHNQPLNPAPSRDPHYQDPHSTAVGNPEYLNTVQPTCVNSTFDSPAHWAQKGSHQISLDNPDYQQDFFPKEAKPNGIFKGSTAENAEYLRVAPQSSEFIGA
For assay [3], the target named is human EGFR L858R/T790M (NIH/3T3 cells) (Homo sapiens, UniProt P00533, L858R/T790M). Put plainly: EGFR target modulation in engineered NIH/3T3 cell lines (phospho-EGFR Y1068 AlphaLISA), EGFR L858R/T790M. Format: cell-based. The following applies: engineered NIH/3T3 cells, read-out: NIH3T3 IC50 (μM) EGFR (L858R/T790M). On the procedure: as §1, §2, §3, §4
Sequence of human EGFR L858R/T790M (NIH/3T3 cells) (P00533 25-1210 T790M/L858R): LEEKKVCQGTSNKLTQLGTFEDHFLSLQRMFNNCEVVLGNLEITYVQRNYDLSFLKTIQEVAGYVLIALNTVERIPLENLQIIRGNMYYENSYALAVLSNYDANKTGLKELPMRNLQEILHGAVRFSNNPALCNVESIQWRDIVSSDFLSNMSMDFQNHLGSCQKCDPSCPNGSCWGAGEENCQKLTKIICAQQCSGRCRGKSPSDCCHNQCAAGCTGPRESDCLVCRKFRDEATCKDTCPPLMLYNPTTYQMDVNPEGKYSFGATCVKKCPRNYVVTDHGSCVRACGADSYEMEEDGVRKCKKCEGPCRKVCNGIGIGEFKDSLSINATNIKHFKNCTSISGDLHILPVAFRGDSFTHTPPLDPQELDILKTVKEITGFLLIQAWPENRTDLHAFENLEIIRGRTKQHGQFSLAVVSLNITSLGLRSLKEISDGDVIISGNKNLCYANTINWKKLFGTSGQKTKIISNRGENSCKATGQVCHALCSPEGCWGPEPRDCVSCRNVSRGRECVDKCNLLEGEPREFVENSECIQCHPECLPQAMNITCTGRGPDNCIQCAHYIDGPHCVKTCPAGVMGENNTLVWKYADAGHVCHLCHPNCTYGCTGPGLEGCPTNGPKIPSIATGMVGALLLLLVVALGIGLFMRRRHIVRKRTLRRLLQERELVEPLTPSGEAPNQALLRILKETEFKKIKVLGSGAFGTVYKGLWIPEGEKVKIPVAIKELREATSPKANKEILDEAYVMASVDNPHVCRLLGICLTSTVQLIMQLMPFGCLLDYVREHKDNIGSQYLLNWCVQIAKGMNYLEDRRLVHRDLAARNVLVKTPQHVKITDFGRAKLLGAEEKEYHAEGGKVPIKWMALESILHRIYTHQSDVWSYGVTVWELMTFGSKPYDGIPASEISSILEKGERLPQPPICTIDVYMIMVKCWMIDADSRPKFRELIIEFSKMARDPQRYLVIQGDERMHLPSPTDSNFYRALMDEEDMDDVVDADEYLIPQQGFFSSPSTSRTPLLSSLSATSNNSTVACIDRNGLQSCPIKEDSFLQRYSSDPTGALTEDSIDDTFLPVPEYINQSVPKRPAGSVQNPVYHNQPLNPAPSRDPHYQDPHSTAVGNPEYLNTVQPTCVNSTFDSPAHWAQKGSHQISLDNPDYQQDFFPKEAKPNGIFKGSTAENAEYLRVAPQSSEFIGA
The mark [4] stands for this setting: EGFR (L858R/T790M) with 90 min pre-incubation, read-out: IC50 (μM) Column B.
[5] abbreviates: EGFR (L858R/T790M) with no pre-incubation, read-out: IC50 (μM) Column A.

Like-named read-outs stand apart in the source and are kept apart here.

T1 sequence (P00533 669-1210 T790M/L858R): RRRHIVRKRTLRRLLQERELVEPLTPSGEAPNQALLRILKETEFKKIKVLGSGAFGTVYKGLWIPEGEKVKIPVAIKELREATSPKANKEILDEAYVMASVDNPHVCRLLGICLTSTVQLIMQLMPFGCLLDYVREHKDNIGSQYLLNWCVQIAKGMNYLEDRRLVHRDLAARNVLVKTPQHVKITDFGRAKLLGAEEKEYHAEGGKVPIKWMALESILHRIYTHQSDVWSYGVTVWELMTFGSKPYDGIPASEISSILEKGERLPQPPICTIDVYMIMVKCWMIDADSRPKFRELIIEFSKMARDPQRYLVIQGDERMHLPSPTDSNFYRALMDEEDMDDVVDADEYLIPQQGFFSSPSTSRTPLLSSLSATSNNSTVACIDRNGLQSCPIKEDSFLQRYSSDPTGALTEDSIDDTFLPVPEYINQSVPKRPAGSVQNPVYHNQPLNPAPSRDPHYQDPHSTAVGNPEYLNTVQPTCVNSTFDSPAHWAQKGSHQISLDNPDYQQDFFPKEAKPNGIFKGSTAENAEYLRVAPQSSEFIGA

For `Cc1cccc2nc(NC(=O)c3ccco3)n(C3CCCCN(C(=O)/C=C/CN(C)C)C3)c12` (centres unmarked) [Example 17-56], the IC50 came to 0.002 µM at EGFR(L858R/T790M) (setting [4]); 0.02 µM at EGFR(L858R/T790M) (setting [5]); 0.017 µM in assay [1]; 0.263 µM in assay [2]; 0.008 µM in assay [3].
In the case of `C=CC(=O)N1CCC[C@@H](n2c(NC(=O)c3cccc(C(F)(F)F)c3)nc3cc(C(=O)OC)ccc32)C1` [Example 17-110], the IC50 on EGFR(L858R/T790M) (setting [4]) was 0.119 µM; at EGFR(L858R/T790M) (setting [5]) it was 10.8 µM; in assay [1], 4.7 µM; in assay [2] it was more than 10 µM; in assay [3], 0.46 µM.
For `Cc1cccc2nc(NC(=O)c3ccnnc3)n([C@@H]3CCCCN(C(=O)C4=COCCO4)C3)c12` [Example 17-89], in that order: 2.32 µM, 1.01 µM, 0.46 µM, 0.7 µM and 7.5 µM.
For `C=CC(=O)N1CCCC[C@@H](n2c(NC(=O)c3ccccc3)nc3cccc(CN(C)CCS(C)(=O)=O)c32)C1` [Example 17-133], in that order: 0.001 µM, 0.018 µM, 0.041 µM, 1.29 µM and 0.006 µM.
Turning to `C=CC(=O)N1CCCCC(n2c(NC(=O)c3ccccc3)nc3cccc(C(=O)NCC(=O)OC)c32)C1` (centres unmarked) [Example 17-135], the IC50 was 0.008 µM on EGFR(L858R/T790M) (setting [4]); 0.62 µM on EGFR(L858R/T790M) (setting [5]); 0.4 µM in assay [1]; more than 10 µM in assay [2]; 0.045 µM in assay [3].
With `Cc1cccc2nc(NC(=O)c3cccc(Cl)c3)n(C3CCCCN(C(=O)/C=C/CN(C)C)C3)c12` (centres unmarked) [Example 17-43], the IC50 at EGFR(L858R/T790M) (setting [4]) is less than 0.001 µM; on EGFR(L858R/T790M) (setting [5]), 0.006 µM; in assay [1], 0.014 µM; in assay [2] it was 0.48 µM; in assay [3], 0.004 µM.
On to `Cc1ncc(C(=O)Nc2nc3cccc(C)c3n2C2CCCCN(C(=O)/C=C/CN(C)C)C2)s1` (single isomer, unassigned) [Example 21-8A], for which the IC50 on EGFR(L858R/T790M) (setting [4]) worked out at 0.033 µM; on EGFR(L858R/T790M) (setting [5]) it was 0.62 µM; in assay [1] it was 0.211 µM; in assay [2], 0.98 µM; in assay [3] it was 0.138 µM.
The corresponding values for `C=CC(=O)N1CCCCC(n2c(NC(=O)c3ccccc3)nc3cccc(C(=O)NCCC(=O)O)c32)C1` (centres unmarked) [Example 17-136] are 0.03 µM, 1.76 µM, more than 10 µM, 8.2 µM and 6.5 µM.
For the molecule `C=CC(=O)N1CCOCC(n2c(NC(=O)c3cccc(C(F)(F)F)c3)nc3cccc(C)c32)C1` (centres unmarked) [Example 17-14], the IC50 at EGFR(L858R/T790M) (setting [4]) worked out at 0.005 µM; on EGFR(L858R/T790M) (setting [5]), 0.033 µM; in assay [1], 0.016 µM; in assay [2] it was 1.08 µM; in assay [3], 0.003 µM.
The corresponding values for `C=C(CN1CCCC1)C(=O)N1CCCC[C@@H](n2c(NC(=O)c3ccnnc3)nc3cccc(C)c32)C1` [Example 17-91] are 0.007 µM, 0.198 µM, 0.033 µM, 1.01 µM and 0.042 µM.
Consider `C=C(CN1CCOCC1)C(=O)N1CCCC[C@@H](n2c(NC(=O)c3ccnnc3)nc3cccc(C)c32)C1` [Example 17-93], for which the IC50 amounted to 0.059 µM on EGFR(L858R/T790M) (setting [4]); 0.39 µM at EGFR(L858R/T790M) (setting [5]); 0.281 µM in assay [1]; 4.2 µM in assay [2]; 0.35 µM in assay [3].
Regarding `C=CC(=O)N1CCOCC(n2c(NC(=O)c3ccccc3)nc3cccc(-c4nc(C)no4)c32)C1` (centres unmarked) [Example 17-141], the IC50 at EGFR(L858R/T790M) (setting [4]) was determined as 0.01 µM; at EGFR(L858R/T790M) (setting [5]), 0.247 µM; in assay [1] it was 0.68 µM; in assay [2] it was 7.8 µM; in assay [3], 0.097 µM.
The corresponding values for `Cc1cccc2nc(NC(=O)c3ccnc(N4CCCCC4)c3)n(C3CCCCN(C(=O)/C=C/CN(C)C)C3)c12` (centres unmarked) [Example 17-57] are less than 0.001 µM, less than 0.001 µM, less than 0.001 µM, 0.02 µM and 0.002 µM.
